This assay concerns the target T1, human CD38 (Homo sapiens, UniProt P28907).
T1 construct: The extracellular domain of human CD38 was expressed in pichia pastoris and purified to homogeneity; made in house; host or cells: Pichia pastoris
T1 sequence (P28907 43-300 limits assumed): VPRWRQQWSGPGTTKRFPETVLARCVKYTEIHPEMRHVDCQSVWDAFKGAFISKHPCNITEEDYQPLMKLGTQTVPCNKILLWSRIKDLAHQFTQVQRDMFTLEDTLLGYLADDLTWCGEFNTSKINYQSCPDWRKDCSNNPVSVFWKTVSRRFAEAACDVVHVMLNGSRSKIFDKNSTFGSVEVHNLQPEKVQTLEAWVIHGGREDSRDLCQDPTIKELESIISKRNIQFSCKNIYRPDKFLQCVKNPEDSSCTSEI
Description: human CD38 enzyme activity colorimetric assay. In kind it is biochemical. The settings on record: extracellular domain of human CD38, 0.4 nM CD38, 100 uM NAD+. Here is the method: The extracellular domain of human CD38 was expressed in pichia pastoris and purified to homogeneity. The enzyme activity assay was performed in a low-volume 384-well plate in a total volume of 20 μL. A range of concentrations of test compound in 200 nL DMSO was delivered into the assay plate wells. Columns 6 and 18 of the plate contained DMSO with no compound and served as the high signal and low signal controls (no CD38 added), respectively. All additions of assay reagents to the plate were done using a Multidrop Combi, and the plate was shaken 3-5 seconds after each addition. CD38 (0.8 nM) was incubated with test compound in 10 μL containing 100 mM HEPES, pH 7.4, 4 mM EDTA, and 1 mM CHAPS for 30 minutes prior to initiation of the reaction. The reaction was initiated by a 10 μL addition containing 5 mM sodium acetate, pH 4.5, 1 mM CHAPS, 200 μM NAD+ and 500 uM GW323424X. The solutions for each of the two additions were prepared fresh each day from concentrated stocks of the individual components. […] Catalytic formation of this novel chromophore was followed in an Envision microplate reader by reading absorbance at two time points, typically 30 minutes apart within the first 45 minutes of the reaction. These time points were established empirically to ensure the rates determined were in a linear range of product formation. Data analysis was performed in the following way using ActivityBase XE (Abase XE). The data from the 15 and 45 minute reads was processed by performing a subtraction function of 45 minute read value minus 15 minute read value for each plate well. The resulting values for non-control wells were converted to % inhibition using the formula 100*((U−C1)/(C2−C1)) where U is the value of the test well, C1 is the average of the values of the high signal (column 6) control wells, and C2 is the average of the values of the low signal (column 18) control wells. Percent inhibition (y) was plotted versus inhibitor concentration (x), and curve fitting was performed with the following four parameter equation: y=A+((B−A)/(1+(10^x/10^C)^D)), where A is the minimum response, B is the maximum response, C is the log10IC50, and D is the Hill slope.

Consider 15 compounds from patent US9840496B2, “CD38 inhibitors and methods of treatment” (GlaxoSmithKline Intellectual Property (No.2) Limited, priority 2014, dated 2017).

In general, IC50 refers to the point on the concentration scale where inhibition reaches its midpoint. Read a low IC50 as higher potency.

In the case of `CCC(O)(CN[C@H]1CC[C@H](NC(=O)c2cc(-n3ccnc3)cc3cc[nH]c23)CC1)C(F)(F)F` (stereo partly drawn) [example 1, N-((1r,4r)-4-((2-Hydroxy-2-(trifluoromethyl)butyl)amino)cyclohexyl)-5-(1Himidazol-1-yl)-1H-indole-7-carboxamide], the IC50 was in the range of 500 to 1000 nM.
The value for `C[C@](CO)(N[C@H]1CC[C@H](NC(=O)c2cc(-n3ccnc3)cc3cc[nH]c23)CC1)C(F)(F)F` [example 2, 5-(1H-Imidazol-1-yl)-N-((1R,4r)-4-(((R)-1,1,1-trifluoro-3-hydroxy-2-methylpropan-2-yl)amino)cyclohexyl)-1H-indole-7-carboxamide] was 500 to 1000 nM; that for `CC(C)c1c[nH]c2c(C(=O)N[C@H]3CC[C@H](OCC(C)(C)O)CC3)cc(-n3ccnc3)cc12` [example 3, N-((1r,4r)-4-(2-Hydroxy-2-methylpropoxy)cyclohexyl)-5-(1H-imidazol-1-yl)-3-isopropyl-1H-indole-7-carboxamide] was greater than 1000 nM.
As for `CNC(=O)[C@H]1CC[C@H](NC(=O)c2cc(-n3ccnc3)cc3cc[nH]c23)CC1` [example 4, 5-(1H-Imidazol-1-yl)-N-((1s,4s)-4-(methylcarbamoyl)cyclohexyl)-1H-indole-7-carboxamide], the IC50 was less than 500 nM.
For `CC(O)CO[C@H]1CC[C@H](NC(=O)c2cc(-n3ccnc3)cc3cc[nH]c23)CC1` (stereo partly drawn) [example 7, N-((1r,4r)-4-(2-Hydroxypropoxy)cyclohexyl)-5-(1H-imidazol-1-yl)-1H-indole-7-carboxamide], the IC50 was less than 500 nM.
Under `CC(O)CO[C@H]1CC[C@H](NC(=O)c2cc(-n3ccnc3)cc3c(Cl)c[nH]c23)CC1` (stereo partly drawn) [example 8, 3-Chloro-N-((1r,4r)-4-(2-hydroxypropoxy)cyclohexyl)-5-(1H-imidazol-1-yl)-1H-indole-7-carboxamide] stands 500 to 1000 nM; under `CC(O)(CO[C@H]1CC[C@H](NC(=O)c2cc(-n3ccnc3)cc3cc[nH]c23)CC1)C(F)(F)F` (stereo partly drawn) [example 9], less than 500 nM.
The value for `CC(O)(CN[C@H]1CC[C@H](NC(=O)c2cc(-n3ccnc3)cc3cc[nH]c23)CC1)C(F)(F)F` (stereo partly drawn) [example 10, 5-(1H-Imidazol-1-yl)-N-((1r,4r)-4-((3,3,3-trifluoro-2-hydroxy-2-methylpropyl)amino)cyclohexyl)-1H-indole-7-carboxamide] was greater than 1000 nM.
The value for `CC(O)(C(=O)N[C@H]1CC[C@H](NC(=O)c2cc(-n3ccnc3)cc3cc[nH]c23)CC1)C(F)(F)F` (stereo partly drawn) [example 11, 5-(1H-Imidazol-1-yl)-N-((1r,4r)-4-(3,3,3-trifluoro-2-hydroxy-2-methylpropanamido)cyclohexyl)-1H-indole-7-carboxamide] was less than 500 nM.
Compound `O=C(N[C@H]1CC[C@H](NCC(F)F)CC1)c1cc(-n2ccnc2)cc2cc[nH]c12` [example 12, N-((1r,4r)-4-((2,2-Difluoroethyl)amino)cyclohexyl)-5-(1H-imidazol-1-yl)-1H-indole-7-carboxamide] yielded an IC50 of less than 500 nM.
The value for `O=C(N[C@H]1CC[C@H](NCC(F)F)CC1)c1cc(-n2ccnc2)cc2c(Cl)c[nH]c12` [example 13, 3-Chloro-N-((1r,4r)-4-((2,2-difluoroethyl)amino)cyclohexyl)-5-(1H-imidazol-1-yl)-1H-indole-7-carboxamide] was greater than 1000 nM; that for `CC(C)C(O)CO[C@H]1CC[C@H](NC(=O)c2cc(-n3ccnc3)cc3cc[nH]c23)CC1` (stereo partly drawn) [example 14, N-((1r,4r)-4-(2-Hydroxy-3-methylbutoxy)cyclohexyl)-5-(1H-imidazol-1-yl)-1H-indole-7-carboxamide] was less than 500 nM; that for `CC(O)(COC1CCC(NC(=O)c2cc(-n3ccnc3)cc3cc[nH]c23)CC1)C1CC1` (stereo not drawn) [example 15, N-((1r,4r)-4-(2-Cyclopropyl-2-hydroxypropoxy)cyclohexyl)-5-(1H-imidazol-1-yl)-1H-indole-7-carboxamide] was less than 500 nM.
Under `C[C@@H](CS(C)(=O)=O)N[C@H]1CC[C@H](NC(=O)c2cc(-n3ccnc3)cc3cc[nH]c23)CC1` [example 16, 5-(1H-Imidazol-1-yl)-N-((1R,4r)-4-(((R)-1-(methylsulfonyl)propan-2-yl)amino)cyclohexyl)-1H-indole-7-carboxamide] stands greater than 1000 nM.
The value for “N-((1r,4r)-4-(2-Hydroxy-2-methylpropoxy)cyclohexyl)-5-(1H-imidazol-1-yl)-1H-indole-7-carboxamide [example 6]” was less than 500 nM.
